Measured values: US20070031907A1, “Anaplastic lymphoma kinase assay, reagents and compositions thereof” (Istituto Nazionale Per Lo Studio E La Cura Dei Tumori, priority 2003, published 2007)

Biological target: T1, purified rALK (Homo sapiens, UniProt Q9UM73)
T1 construct: A portion of ALK, stretching from amino acids Leu^1073 to Ala^1459, has been cloned into the baculovirus transfer vector; made in house; host or cells: Sf9 (Spodoptera frugiperda) insect cells, baculovirus (pBlueBacHis2C, MaxBac 2.0)
Test: ELISA-based in vitro kinase assay
Assay type: biochemical
Description: ELISA-based in vitro Kinase Assay A Nunc Immuno 96 well plate was incubated overnight at 37° C. with coating solution (125 μl/well) containing ALK peptide substrate (SEQ ID N. 1 or SEQ ID N. 2) at various concentrations in PBS. The wells were then washed with 200 μl of wash buffer (PBS-Tween 0.05%) and left to dry for at least 2 hours at 37° C. […] The reaction mix was then removed and wells were washed 5 times with 200 μl of wash buffer. Phosphorylated peptide was detected using 100 μl/well of a mouse monoclonal anti-phosphotyrosine antibody (clone 4G10 UpstateBiotech Ltd) diluted 1:500 in PBS+4% BSA. After 30 minutes incubation at room temperature the antibody was removed and wells were washed as described above. 100 μl of a secondary antibody (anti-mouse IgG, Horseradish Peroxidase linked whole antibody, from sheep, Amersham Pharmacia Biotech) diluted 1:1000 in PBS+4% BSA was added to each well and the plate was incubated again for 30 minutes at room temperature before washing as above. The plate was developed using 100 μl/well TMB Substrate Solution (Endogen) and the reaction was stopped by adding an equal volume of H2SO4 0.18 M. Finally, the absorbance was read at 450 or 490 nm using an Ultrospec® 300 spectrophotometer (Amersham-Pharmacia Biotech).

T1 sequence (Q9UM73 1073-1459): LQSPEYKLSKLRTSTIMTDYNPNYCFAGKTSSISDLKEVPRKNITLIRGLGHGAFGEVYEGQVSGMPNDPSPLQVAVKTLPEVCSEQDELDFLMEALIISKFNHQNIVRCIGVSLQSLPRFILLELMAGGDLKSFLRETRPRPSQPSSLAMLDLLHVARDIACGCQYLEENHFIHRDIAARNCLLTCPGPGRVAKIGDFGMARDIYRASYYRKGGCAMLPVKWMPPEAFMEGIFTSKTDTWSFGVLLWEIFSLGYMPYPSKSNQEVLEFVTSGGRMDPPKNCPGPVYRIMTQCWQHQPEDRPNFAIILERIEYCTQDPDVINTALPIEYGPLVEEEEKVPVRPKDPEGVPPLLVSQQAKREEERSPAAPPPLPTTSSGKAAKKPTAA

SMILES: CN[C@@H]1C[C@H]2O[C@@](C)([C@@H]1OC)n1c3ccccc3c3c4c(c5c6ccccc6n2c5c31)C(=O)NC4 [Staurosporine]
- concentration reaching maximum inhibition of rALK activity (42 μM peptide substrate, 20 ng rALK, 30° C., 15 mins): 1 µM
- concentration at which effective as an ALK inhibitor (positive control for screening): 0.2 to 0.3 µM
